Laboratory results: patent US20170166598A1, “HETEROARYL COMPOUNDS FOR KINASE INHIBITION” (ARIAD PHARMACEUTICALS, INC., priority 2014, published 2017)

Columns and labels:
Assay type in all cases: cell-based
[1] = biological target: T1, human EGFR E746-A750 deletion and T790M Mutation (Homo sapiens, UniProt P00533, DEL746-750/T790M); assay: Ba/F3-EGFR-Del/T790M cell anti-proliferative assay (CellTiter 96 MTS, 72 h); details: Ba/F3-EGFR-Del/T790M cells
T1 construct: expressed in transfected cells; host or cells: Ba/F3 (murine pro-B) cells transduced with lentivirus from pLVX-IRES puro
T1 sequence (P00533 with tags, fused parts or gaps DEL746-750/T790M): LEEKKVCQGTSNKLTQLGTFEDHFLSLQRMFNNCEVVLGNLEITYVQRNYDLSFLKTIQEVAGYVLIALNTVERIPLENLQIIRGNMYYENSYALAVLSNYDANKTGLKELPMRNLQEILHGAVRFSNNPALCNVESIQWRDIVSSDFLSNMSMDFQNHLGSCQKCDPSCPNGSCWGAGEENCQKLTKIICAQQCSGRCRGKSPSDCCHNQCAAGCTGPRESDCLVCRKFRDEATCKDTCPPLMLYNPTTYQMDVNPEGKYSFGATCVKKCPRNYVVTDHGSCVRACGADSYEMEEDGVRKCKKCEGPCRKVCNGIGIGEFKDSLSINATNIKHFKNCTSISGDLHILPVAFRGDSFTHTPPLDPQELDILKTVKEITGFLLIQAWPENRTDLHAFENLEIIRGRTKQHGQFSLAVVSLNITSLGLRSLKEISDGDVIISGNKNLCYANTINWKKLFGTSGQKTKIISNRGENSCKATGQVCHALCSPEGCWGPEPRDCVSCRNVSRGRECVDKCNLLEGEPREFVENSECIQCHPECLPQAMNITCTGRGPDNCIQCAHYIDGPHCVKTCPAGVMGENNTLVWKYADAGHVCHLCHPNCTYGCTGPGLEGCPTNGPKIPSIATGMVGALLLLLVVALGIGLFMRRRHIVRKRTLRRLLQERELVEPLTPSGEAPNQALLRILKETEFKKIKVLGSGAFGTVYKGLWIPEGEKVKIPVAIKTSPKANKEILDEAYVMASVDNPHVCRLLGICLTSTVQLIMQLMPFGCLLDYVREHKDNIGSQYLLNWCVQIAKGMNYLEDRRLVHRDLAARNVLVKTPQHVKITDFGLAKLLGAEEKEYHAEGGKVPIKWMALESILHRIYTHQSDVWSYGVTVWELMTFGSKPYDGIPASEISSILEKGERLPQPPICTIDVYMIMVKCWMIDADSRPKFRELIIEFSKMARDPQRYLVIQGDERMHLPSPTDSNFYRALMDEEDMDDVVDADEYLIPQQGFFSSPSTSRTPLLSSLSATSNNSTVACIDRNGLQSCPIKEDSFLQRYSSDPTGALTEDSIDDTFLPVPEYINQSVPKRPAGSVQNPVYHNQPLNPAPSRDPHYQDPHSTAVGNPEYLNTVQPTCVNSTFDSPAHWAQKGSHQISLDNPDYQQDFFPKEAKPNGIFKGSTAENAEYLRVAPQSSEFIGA
Description: An expression vector, pLVX-IRES puro (Clontech) coding for human EGFR E746-A750 deletion and T790M Mutation, was transfected into HEK293 cells by the Trans-Lentiviral ORF Packaging System (Thermo Scientific), to produce virus encoding EGFR exon 19 deletion and T790M mutations. Ba/F3 (DSMZ) cells maintained in RPMI 1640 medium supplemented with 10% fetal bovine serum, 200 μM L-glutamine/200 μg/mL penicillin/200 μg/mL streptomycin (Life Technology) and 10 ng/mL IL-3 (R&D system), were infected by EGFR E746-A750 deletion and T790M Mutation virus and subsequently selected by puromycin (Life Technology) selection and IL-3 depletion. […] The anti-proliferative activity of compounds was determined as follows: BaF3-EGFR-Del/T790M cells seeded in 96 well plates (2500 cells/well) were treated with test compound (dissolved in DMSO) at a series of concentrations (4-fold dilution, top concentration: 10,000 nM). The plates were incubated for 72 h in a 37° C. incubator with 5% CO2, and the number of viable cells in each well were measured indirectly by CellTiter 96® Aqueous One Solution Cell Proliferation Assay (Promega; this assay is a colorimetric method for determining the number of viable cells through measurement of their metabolic activity by detection of enzymatic conversion of tetrazolium salts into blue formazan derivatives). Reagent (20 μL) was added into each well, and the plates were returned to the incubator for 2 h. The absorbance in each well was then measured at 490 nm using an Envision plate reader (Perkin Elmer).

[2] = biological target: T2, Her2 exon 20 YVMA insertion (A775_G776ins YVMA) (Homo sapiens, UniProt P04626, INS775YVMA); assay: Ba/F3-Her2 Exon20 YVMA cell anti-proliferative assay (CellTiter 96 MTS, 72 h); details: Ba/F3-Her2 Exon20 YVMA cells
T2 construct: expressed in transfected cells; host or cells: Ba/F3 (murine pro-B) cells transduced with lentivirus from pLVX-IRES puro
T2 sequence (P04626 with tags, fused parts or gaps INS775YVMA): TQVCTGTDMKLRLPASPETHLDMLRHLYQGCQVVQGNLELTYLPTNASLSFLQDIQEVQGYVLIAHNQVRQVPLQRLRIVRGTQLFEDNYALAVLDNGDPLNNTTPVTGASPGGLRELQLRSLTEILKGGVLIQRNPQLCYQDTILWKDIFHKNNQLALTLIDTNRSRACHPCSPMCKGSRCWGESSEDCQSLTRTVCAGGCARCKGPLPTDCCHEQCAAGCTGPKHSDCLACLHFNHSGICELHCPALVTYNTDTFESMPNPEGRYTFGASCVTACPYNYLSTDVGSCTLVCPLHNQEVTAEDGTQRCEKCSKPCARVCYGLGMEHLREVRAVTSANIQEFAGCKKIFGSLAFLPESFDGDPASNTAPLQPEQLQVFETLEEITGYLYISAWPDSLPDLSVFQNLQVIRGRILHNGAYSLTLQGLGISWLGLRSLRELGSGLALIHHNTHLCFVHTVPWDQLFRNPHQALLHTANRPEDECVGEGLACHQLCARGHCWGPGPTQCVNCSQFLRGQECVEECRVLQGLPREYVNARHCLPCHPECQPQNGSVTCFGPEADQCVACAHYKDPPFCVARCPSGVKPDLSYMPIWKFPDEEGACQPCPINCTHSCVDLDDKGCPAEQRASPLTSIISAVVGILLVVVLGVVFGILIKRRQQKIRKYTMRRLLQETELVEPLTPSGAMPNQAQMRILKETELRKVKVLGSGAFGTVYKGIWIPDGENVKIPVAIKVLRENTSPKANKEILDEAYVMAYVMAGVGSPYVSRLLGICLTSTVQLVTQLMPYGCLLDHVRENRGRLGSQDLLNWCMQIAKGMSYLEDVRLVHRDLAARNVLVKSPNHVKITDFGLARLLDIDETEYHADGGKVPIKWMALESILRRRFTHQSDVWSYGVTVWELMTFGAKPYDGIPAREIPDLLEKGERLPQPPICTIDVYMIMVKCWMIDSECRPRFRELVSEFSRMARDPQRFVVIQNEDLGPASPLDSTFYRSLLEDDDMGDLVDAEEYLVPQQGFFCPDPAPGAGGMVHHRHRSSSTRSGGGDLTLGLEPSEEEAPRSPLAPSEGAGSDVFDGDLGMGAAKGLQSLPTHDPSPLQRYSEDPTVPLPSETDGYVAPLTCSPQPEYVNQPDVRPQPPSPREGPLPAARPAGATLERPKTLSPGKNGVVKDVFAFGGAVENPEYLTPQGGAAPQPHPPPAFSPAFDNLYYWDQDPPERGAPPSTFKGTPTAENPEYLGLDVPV
From the text: A compound's ability in selectively inhibiting Her2 exon 20 YVMA insertion mutations can be assessed using Ba/F3 cells, a murine pro-B cell line, which have been transduced with Her2 Exon20 YVMA insertions. An expression vector, pLVX-IRES puro (Clontech) coding for […] (A775_G776ins YVMA), was transfected into HEK293 cells by the Trans-Lentiviral ORF Packaging System (Thermo Scientific), to produce virus encoding EGFR exon 20 insertions. Ba/F3 (DSMZ) cells maintained in RPMI 1640 medium supplemented with 10% fetal bovine serum, 200 μM L-glutamine/200 μg/mL penicillin/200 μg/mL streptomycin (Life Technology) and 10 ng/mL IL-3 (R&D system), were infected by EGFR Exon20 virus and subsequently selected by puromycin (Life Technology) selection and IL-3 depletion. Ba/F3 cells expressing Her2 Exon20 YVMA insertions (named Ba/F3-Her2 Exon20 YVMA) can proliferate in the absence of IL-3. The anti-proliferative activity of compounds was determined as follows: BaF3-Her2 Exon20 YVMA cells seeded in 96 well plates (2500 cells/well) were treated with test compound (dissolved in DMSO) at a series of concentrations (4-fold dilution, top concentration: 10,000 nM). The plates were incubated for 72 h in a 37° C. incubator with 5% CO2, and the number of viable cells in each well were measured indirectly by CellTiter 96@ Aqueous One Solution Cell Proliferation Assay (Promega; this assay is a colorimetric method for determining the number of viable cells through measurement of their metabolic activity by detection of enzymatic conversion of tetrazolium salts into blue formazan derivatives). Reagent (20 μL) was added into each well, and the plates were returned to the incubator for 2 h. The absorbance in each well was then measured at 490 nm using an Envision plate reader (Perkin Elmer).

[3] = biological target: T3, human EGFR exon 20 insertion NPG (H773_V774insNPG) (Homo sapiens, UniProt P00533, INS772GNP); assay: Ba/F3-EGFR-Exon20-NPG cell anti-proliferative assay (CellTiter 96 MTS, 72 h); details: Ba/F3-EGFR-Exon20-NPG cells
T3 construct: expressed in transfected cells; host or cells: Ba/F3 (murine pro-B) cells transduced with lentivirus from pLVX-IRES puro
T3 sequence (P00533 with tags, fused parts or gaps INS772GNP): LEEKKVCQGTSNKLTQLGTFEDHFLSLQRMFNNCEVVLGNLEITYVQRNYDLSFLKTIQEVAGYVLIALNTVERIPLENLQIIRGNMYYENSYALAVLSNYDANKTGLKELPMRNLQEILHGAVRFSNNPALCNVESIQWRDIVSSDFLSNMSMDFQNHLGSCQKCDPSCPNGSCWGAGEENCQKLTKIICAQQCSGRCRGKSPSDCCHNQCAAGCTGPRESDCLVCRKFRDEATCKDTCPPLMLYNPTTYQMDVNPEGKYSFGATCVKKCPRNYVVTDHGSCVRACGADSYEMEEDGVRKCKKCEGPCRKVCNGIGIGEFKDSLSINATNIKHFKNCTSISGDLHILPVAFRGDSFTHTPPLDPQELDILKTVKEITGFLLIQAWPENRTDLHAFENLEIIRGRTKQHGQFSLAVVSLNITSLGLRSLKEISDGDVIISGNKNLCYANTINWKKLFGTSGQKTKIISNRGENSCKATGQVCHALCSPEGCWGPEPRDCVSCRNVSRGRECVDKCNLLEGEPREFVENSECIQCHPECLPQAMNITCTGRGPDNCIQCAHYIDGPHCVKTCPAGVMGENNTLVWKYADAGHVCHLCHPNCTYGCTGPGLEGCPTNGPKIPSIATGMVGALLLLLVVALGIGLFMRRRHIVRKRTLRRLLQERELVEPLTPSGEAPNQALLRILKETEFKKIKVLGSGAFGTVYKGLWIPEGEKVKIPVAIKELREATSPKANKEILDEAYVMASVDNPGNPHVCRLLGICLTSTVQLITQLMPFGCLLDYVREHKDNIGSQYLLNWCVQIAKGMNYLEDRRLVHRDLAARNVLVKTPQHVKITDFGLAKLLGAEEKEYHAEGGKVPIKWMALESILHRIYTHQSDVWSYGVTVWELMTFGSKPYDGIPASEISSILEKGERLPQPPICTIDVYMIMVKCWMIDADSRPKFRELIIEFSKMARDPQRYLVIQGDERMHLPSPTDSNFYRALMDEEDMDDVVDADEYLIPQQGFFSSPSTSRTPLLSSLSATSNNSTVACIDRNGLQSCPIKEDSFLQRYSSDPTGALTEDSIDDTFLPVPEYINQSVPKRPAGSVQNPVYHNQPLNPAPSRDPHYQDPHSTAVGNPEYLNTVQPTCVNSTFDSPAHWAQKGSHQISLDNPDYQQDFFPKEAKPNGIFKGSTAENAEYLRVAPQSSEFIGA
Description: An expression vector, pLVX-IRES puro (Clontech) coding for human EGFR exon 20 insertions NPG (H773_V774insNPG) or ASV (V769_D770insASV), was transfected into HEK293 cells by the Trans-Lentiviral ORF Packaging System (Thermo Scientific), to produce virus encoding EGFR exon 20 insertions. Ba/F3 (DSMZ) cells maintained in RPMI 1640 medium supplemented with 10% fetal bovine serum, 200 μM L-glutamine/l 200 μg/mL penicillin/200 μg/mL streptomycin (Life Technology) and 10 ng/mL IL-3 (R&D system), were infected by EGFR Exon20 virus and subsequently selected by puromycin (Life Technology) selection and IL-3 depletion. […] The anti-proliferative activity of compounds were determined as follows: BaF3-EGFR-Exon20 cells (NPG or ASV) seeded in 96 well plates (2500 cells/well) were treated with test compound (dissolved in DMSO) at a series of concentrations (4-fold dilution, top concentration: 10,000 nM). The plates were incubated for 72 h in a 37° C. incubator with 5% CO2, and the number of viable cells in each well were measured indirectly by CellTiter 96® Aqueous One Solution Cell Proliferation Assay (Promega) This assay is a colorimetric method for determining the number of viable cells through measurement of their metabolic activity by detection of enzymatic conversion of tetrazolium salts into blue formazan derivatives. Reagent (20 μL) was added into each well, and the plates were returned to the incubator for 2 h. The absorbance in each well was then measured at 490 nm using an Envision plate reader (Perkin Elmer).

Structure (SMILES) | IC50 [2] | IC50 [3] | EGFR exon 19 deletion and exon 20 T790M mutation IC50 [1]
C=CC(=O)Nc1cc(Nc2ncc(Cl)c(-c3cn4c5c(cccc35)CCC4)n2)c(OC)cc1N(C)CCN1CCN(C)CC1 [Example 25, N-(5-((5-chloro-4-(5,6-dihydro-4H-pyrrolo[3,2,1-ij]quinolin-1-yl)pyrimidin-2-yl)amino)-4-methoxy-2-(methyl(2-(4-methylpiperazin-1-yl)ethyl)amino)phenyl)acrylamide] | > 1000 nM | 100 to 500 nM | A (IC50 value for the indicated mutant below about 100 nM)
C=CC(=O)Nc1cc(Nc2ncc(Cl)c(-c3cn4c5c(cccc35)CCC4)n2)c(OC)cc1OCCN1CCN(C)CC1 [Example 21, N-(5-((5-chloro-4-(5,6-dihydro-4H-pyrrolo[3,2,1-ij]quinolin-1-yl)pyrimidin-2-yl)amino)-4-methoxy-2-(2-(4-methylpiperazin-1-yl)ethoxy)phenyl)acrylamide] | > 1000 nM | 100 to 500 nM | A (IC50 value for the indicated mutant below about 100 nM)
C=CC(=O)Nc1cc(Nc2ncc(CC)c(-c3cn4c5c(cccc35)CCC4)n2)c(OC)cc1N1CCN(C(C)=O)CC1 [Example 3, N-(2-(4-acetylpiperazin-1-yl)-5-((4-(5,6-dihydro-4H-pyrrolo[3,2,1-ij]quinolin-1-yl)-5-ethylpyrimidin-2-yl)amino)-4-methoxyphenyl)acrylamide] | > 1000 nM | > 1000 nM | B (IC50 value for the indicated mutant between about 100 to about 500 nM)
C=CC(=O)Nc1cc(Nc2ncc(C3CC3)c(-c3cn4c5c(cccc35)CCC4)n2)c(OC)cc1N(C)CCN(C)C [Example 28, N-(5-((5-cyclopropyl-4-(5,6-dihydro-4H-pyrrolo[3,2,1-ij]quinolin-1-yl)pyrimidin-2-yl)amino)-2-((2-(dimethylamino)ethyl)(methyl)amino)-4-methoxyphenyl)acrylamide] | 500 to 1000 nM | < 100 nM | A (IC50 value for the indicated mutant below about 100 nM)
C=CC(=O)Nc1cc(Nc2ncc(C(C)C)c(-c3cn4c5c(cccc35)CCC4)n2)c(OC)cc1N(C)CCN(C)C [Example 30, N-(5-((4-(5,6-dihydro-4H-pyrrolo[3,2,1-ij]quinolin-1-yl)-5-isopropylpyrimidin-2-yl)amino)-2-((2-(dimethylamino)ethyl)(methyl)amino)-4-methoxyphenyl)acrylamide] | 500 to 1000 nM | 100 to 500 nM | A (IC50 value for the indicated mutant below about 100 nM)
C=CC(=O)Nc1cc(Nc2ncc(Cl)c(-c3cn4c5c(cccc35)CCC4)n2)c(OC)cc1OCCN1CCOCC1 [Example 22, N-(5-((5-chloro-4-(5,6-dihydro-4H-pyrrolo[3,2,1-ij]quinolin-1-yl)pyrimidin-2-yl)amino)-4-methoxy-2-(2-morpholinoethoxy)phenyl)acrylamide] | > 1000 nM | 100 to 500 nM | A (IC50 value for the indicated mutant below about 100 nM)

Continued, in another order:

IC50 [2] | IC50 [3] | Structure (SMILES) | EGFR exon 19 deletion and exon 20 T790M mutation IC50 [1]
< 100 nM | < 100 nM | C=CC(=O)Nc1cc(Nc2ncc(C(=C)C)c(-c3cn4c5c(cccc35)CCC4)n2)c(OC)cc1N(C)CCN(C)C [Example 29, N-(5-((4-(5,6-dihydro-4H-pyrrolo[3,2,1-ij]quinolin-1-yl)-5-(prop-1-en-2-yl)pyrimidin-2-yl)amino)-2-((2-(dimethylamino)ethyl)(methyl)amino)-4-methoxyphenyl)acrylamide] | A (IC50 value for the indicated mutant below about 100 nM)
100 to 500 nM | – | C=CC(=O)Nc1cc(Nc2nccc(-c3cn4c5c(cccc35)OCC4)n2)c(OC)cc1N(C)CCN(C)C [Example 77, N-(5-((4-(2,3-dihydro-[1,4]oxazino[2,3,4-hi]indol-6-yl)pyrimidin-2-yl)amino)-2-((2-(dimethylamino)ethyl)(methyl)amino)-4-methoxyphenyl)acrylamide] | –
100 to 500 nM | < 100 nM | C=CC(=O)Nc1cc(Nc2ncc(Cl)c(-c3cn4c5c(cccc35)OCC4)n2)c(C)cc1N(C)CCN1CCCC1 [Example 79, N-(5-((5-chloro-4-(2,3-dihydro-[1,4]oxazino[2,3,4-hi]indol-6-yl)pyrimidin-2-yl)amino)-4-methyl-2-(methyl(2-(pyrrolidin-1-yl)ethyl)amino)phenyl)acrylamide] | A (IC50 value for the indicated mutant below about 100 nM)
100 to 500 nM | < 100 nM | C=CC(=O)Nc1cc(Nc2ncc(Cl)c(-c3cn4c5c(cccc35)OCC4)n2)c(C)cc1OCCN1CCCC1 [Example 78, N-(5-((5-chloro-4-(2,3-dihydro-[1,4]oxazino[2,3,4-hi]indol-6-yl)pyrimidin-2-yl)amino)-4-methyl-2-(2-(pyrrolidin-1-yl)ethoxy)phenyl)acrylamide] | A (IC50 value for the indicated mutant below about 100 nM)
500 to 1000 nM | 100 to 500 nM | C=CC(=O)Nc1cc(Nc2ncc(Cl)c(-c3cn4c5c(cccc35)CCC4)n2)c(OC)cc1OCCN1CCCC1 [Example 20] | A (IC50 value for the indicated mutant below about 100 nM)
100 to 500 nM | < 100 nM | C=CC(=O)Nc1cc(Nc2ncc(Cl)c(-c3cn4c5c(cccc35)CCC4)n2)c(OC)cc1N(C)CCN1CCCC1 [Example 24, N-(5-((5-chloro-4-(5,6-dihydro-4H-pyrrolo[3,2,1-ij]quinolin-1-yl)pyrimidin-2-yl)amino)-4-methoxy-2-(methyl(2-(pyrrolidin-1-yl)ethyl)amino)phenyl)acrylamide] | A (IC50 value for the indicated mutant below about 100 nM)
100 to 500 nM | < 100 nM | C=CC(=O)Nc1cc(Nc2ncc(Cl)c(-c3cn4c5c(cccc35)CCC4)n2)c(C)cc1N(C)CCN(C)C [Example 13, N-(5-((5-chloro-4-(5,6-dihydro-4H-pyrrolo[3,2,1-ij]quinolin-1-yl)pyrimidin-2-yl)amino)-2-((2-(dimethylamino)ethyl)(methyl)amino)-4-methylphenyl)acrylamide] | A (IC50 value for the indicated mutant below about 100 nM)
